The assay has as its target T1, E-selectin (Homo sapiens, UniProt P16581).
T1 sequence (P16581 whole entry): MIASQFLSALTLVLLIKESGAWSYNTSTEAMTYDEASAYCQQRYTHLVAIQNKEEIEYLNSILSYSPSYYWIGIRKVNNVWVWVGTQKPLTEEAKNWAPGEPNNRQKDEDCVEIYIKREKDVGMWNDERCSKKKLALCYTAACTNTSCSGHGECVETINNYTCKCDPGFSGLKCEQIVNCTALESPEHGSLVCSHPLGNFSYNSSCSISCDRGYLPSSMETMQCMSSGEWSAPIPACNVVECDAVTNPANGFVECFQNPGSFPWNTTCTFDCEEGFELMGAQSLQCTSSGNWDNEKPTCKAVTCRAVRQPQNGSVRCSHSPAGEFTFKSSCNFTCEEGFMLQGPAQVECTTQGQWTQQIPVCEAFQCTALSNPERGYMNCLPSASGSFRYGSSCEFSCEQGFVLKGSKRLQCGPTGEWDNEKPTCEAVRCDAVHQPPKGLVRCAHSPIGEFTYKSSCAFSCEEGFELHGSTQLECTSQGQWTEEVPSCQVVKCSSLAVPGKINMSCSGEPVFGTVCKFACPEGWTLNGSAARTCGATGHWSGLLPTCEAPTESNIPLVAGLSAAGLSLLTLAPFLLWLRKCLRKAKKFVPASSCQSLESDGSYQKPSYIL
The assay can be described thus: Compound was evaluated for the Selectin E binding activity.

IC50 data for one compound are collected here from ChEMBL document CHEMBL1130612, “Exploration of beta-turn scaffolding motifs as components of sialyl Le(X) mimetics and their relevance to P-selectin” (Bioorg Med Chem Lett, 1998).

One may read the IC50 as the concentration at which inhibition is half-maximal. Low readings indicate greater potency in that assay, high ones weaker potency in that assay.

Compound `CC(=O)N[C@H]1[C@H]([C@H](O)[C@H](O)CO)O[C@@](O[C@H]2[C@@H](O)[C@@H](CO)O[C@@H](O[C@@H]([C@H](O[C@@H]3O[C@@H](C)[C@@H](O)[C@@H](O)[C@@H]3O)[C@H](C=O)NC(C)=O)[C@H](O)CO)[C@@H]2O)(C(=O)O)C[C@@H]1O` [SIALYL LEWIS X] had an IC50 of over 10 µM.
